17 molecules from US10138247B2, “7-(morpholin-4-yl)pyrazole[1,5-A]pyrimidine derivatives as PI3 kinase inhibitors” (priority 2015, dated 2018) can be followed below.

Read-outs that look alike come from different tables or passages of the source.

A short description of data set [1]: Pharmacokinetics testing in vivo, oral, rats. As to conditions: rat, Wistar rats, oral 30 mg/kg, serum. The protocol:
Tests were performed on about 12 weeks old Wistar rats, weight 250-300 g. Rats were given orally tested compounds at 30 mg/kg m.c. Blood samples were collected from animals for analysis in 6 time points—30 min, 1 h, 2 h, 4 h, 7 h, and 12 h from administration of the compound. Blood was collected to tubes with K2EDTA and centrifuged for 15 min, 2000×g, at room temperature to separate serum. Collected serum samples were maintained at −20° C. before analysis. Each of the compounds was tested on a group of 5 animals.
Serum concentrations of tested compounds were determined by spectrophotometry. For each of tested compounds, time to reach maximum serum concentration (Tmax), maximum concentration (Cmax), and area under the curve (AUC) were determined.

Another data set concerns the target T1, PI3Kδ (Homo sapiens, UniProt O00329).
T1 construct: purchased Merck Millipore
Put plainly: PI3K kinases inhibition in vitro (ADP-Glo), PI3Kδ. In kind it is biochemical. The procedure: (§1) Tested compounds were dissolved in 100% DMSO, and thus obtained solutions were serially diluted in 1× reaction buffer. Recombinant kinase was diluted in a reaction mixture comprising 5× reaction buffer, substrate (1 mM sodium diacetate 4,5-bisphosphate phosphatydylinositol (PIP2) solution in 40 mM Tris buffer), and water. To the wells in a 96-wells plate, 5 μl of compounds solutions and 15 μl of the kinase solution in the reaction mixture were added. To initiate interaction of tested chemical compounds with the enzyme, the plate was incubated for 10 minutes at suitable temperature in a plate thermostat with orbital shaking at 600 rpm. Negative control wells contained all above reagents except tested compound and kinase, and positive control wells contained all above reagents except tested compounds. Enzymatic reaction was initiated by adding 5 μl of 150 μM ATP solution, subsequently the plate was incubated for 1 hour at 25° C. or 30° C. (depending on PI3K isoform tested) in plate thermostat with orbital shaking of the plate contents at 600 rpm. Reaction conditions are presented below in Table 12.
(§2) Detection of ADP formed in the enzymatic reaction was then performed using ADP-Glo Kinase Assay (Promega). To the wells of a 96-well plate 25 μl of ADP-Glo Reagent were added, and the plate was incubated for 40 minutes at 25° C. in a plate thermostat with orbital shaking at 600 rpm. Then to the wells of 96-well plate 50 μl of Kinase Detection Reagent were added and the plate was incubated for 40 minutes at 25° C. in a plate thermostat with orbital shaking at 600 rpm. After incubation time, luminescence intensity in a well was measured by Victor Light luminometer (Perkin Elmer, Inc.).
(§3) IC50 values were determined on the basis of luminescence intensity measurements in wells containing tested compounds at different concentrations and in control wells. These values were calculated with Graph Pad 5.03 software by fitting the curve using non-linear regression. Each compound was tested at least in quadruplicates (4 wells) on two 96-well plates using at least 4 wells of each of the controls.
(In ADP-Glo the light output rises with the ADP produced.)

The target of another data set is T2, PI3Kβ (Homo sapiens, UniProt P42338).
T2 construct: purchased Merck Millipore
T2 sequence (P42338 whole entry): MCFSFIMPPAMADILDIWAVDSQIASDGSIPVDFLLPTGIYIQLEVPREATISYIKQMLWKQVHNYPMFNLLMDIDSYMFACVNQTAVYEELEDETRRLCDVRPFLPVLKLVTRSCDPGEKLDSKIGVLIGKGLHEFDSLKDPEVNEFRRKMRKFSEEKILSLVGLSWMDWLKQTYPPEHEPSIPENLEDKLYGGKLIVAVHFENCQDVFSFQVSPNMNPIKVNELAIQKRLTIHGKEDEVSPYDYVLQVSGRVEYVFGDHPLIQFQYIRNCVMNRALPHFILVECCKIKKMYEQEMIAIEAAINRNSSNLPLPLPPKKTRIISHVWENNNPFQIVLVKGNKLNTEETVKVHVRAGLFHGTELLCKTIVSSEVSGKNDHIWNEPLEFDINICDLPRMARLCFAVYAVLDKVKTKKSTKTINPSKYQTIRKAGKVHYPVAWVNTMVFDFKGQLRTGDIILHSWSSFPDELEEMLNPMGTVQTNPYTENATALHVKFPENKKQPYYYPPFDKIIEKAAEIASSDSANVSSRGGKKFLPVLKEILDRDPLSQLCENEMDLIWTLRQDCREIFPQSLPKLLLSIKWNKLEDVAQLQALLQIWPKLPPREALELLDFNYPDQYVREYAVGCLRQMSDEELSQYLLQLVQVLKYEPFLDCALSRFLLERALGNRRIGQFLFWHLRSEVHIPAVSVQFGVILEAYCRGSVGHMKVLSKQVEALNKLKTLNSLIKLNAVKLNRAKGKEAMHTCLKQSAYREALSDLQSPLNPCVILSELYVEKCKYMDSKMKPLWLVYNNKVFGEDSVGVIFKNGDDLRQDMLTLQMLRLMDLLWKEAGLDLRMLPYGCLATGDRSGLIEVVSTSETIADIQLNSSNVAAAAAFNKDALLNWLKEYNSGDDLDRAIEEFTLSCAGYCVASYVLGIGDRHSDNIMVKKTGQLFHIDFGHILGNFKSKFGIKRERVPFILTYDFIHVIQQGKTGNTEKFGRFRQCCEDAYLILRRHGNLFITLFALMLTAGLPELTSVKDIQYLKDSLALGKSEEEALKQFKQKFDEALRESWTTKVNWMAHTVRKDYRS
T2 sequence (P27986 whole entry, further chain): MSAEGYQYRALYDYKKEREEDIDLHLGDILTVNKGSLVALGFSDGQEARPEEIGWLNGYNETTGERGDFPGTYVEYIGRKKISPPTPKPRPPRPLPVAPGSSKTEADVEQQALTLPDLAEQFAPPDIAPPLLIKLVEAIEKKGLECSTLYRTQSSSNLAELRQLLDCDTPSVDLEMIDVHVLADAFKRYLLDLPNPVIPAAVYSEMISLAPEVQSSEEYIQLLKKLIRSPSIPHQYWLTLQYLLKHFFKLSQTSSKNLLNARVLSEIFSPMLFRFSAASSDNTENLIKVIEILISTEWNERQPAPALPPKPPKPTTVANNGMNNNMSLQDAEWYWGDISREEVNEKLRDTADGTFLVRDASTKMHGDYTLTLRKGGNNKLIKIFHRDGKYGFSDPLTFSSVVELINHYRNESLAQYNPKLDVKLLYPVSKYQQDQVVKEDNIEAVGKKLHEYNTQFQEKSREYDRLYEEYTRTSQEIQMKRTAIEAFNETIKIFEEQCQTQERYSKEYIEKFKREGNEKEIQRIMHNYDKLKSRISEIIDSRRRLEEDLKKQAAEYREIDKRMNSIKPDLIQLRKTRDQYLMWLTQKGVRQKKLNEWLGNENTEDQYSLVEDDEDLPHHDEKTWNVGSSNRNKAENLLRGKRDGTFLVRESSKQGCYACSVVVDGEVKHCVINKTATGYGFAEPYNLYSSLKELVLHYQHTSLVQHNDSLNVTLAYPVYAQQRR
Put plainly: PI3K kinases inhibition in vitro (ADP-Glo), PI3Kβ. Type of data set: biochemical. The procedure:
as §1, §2, §3

The next data set deals with T3, PI3Kγ (Homo sapiens, UniProt P48736).
T3 construct: purchased Merck Millipore
T3 sequence (P48736 whole entry): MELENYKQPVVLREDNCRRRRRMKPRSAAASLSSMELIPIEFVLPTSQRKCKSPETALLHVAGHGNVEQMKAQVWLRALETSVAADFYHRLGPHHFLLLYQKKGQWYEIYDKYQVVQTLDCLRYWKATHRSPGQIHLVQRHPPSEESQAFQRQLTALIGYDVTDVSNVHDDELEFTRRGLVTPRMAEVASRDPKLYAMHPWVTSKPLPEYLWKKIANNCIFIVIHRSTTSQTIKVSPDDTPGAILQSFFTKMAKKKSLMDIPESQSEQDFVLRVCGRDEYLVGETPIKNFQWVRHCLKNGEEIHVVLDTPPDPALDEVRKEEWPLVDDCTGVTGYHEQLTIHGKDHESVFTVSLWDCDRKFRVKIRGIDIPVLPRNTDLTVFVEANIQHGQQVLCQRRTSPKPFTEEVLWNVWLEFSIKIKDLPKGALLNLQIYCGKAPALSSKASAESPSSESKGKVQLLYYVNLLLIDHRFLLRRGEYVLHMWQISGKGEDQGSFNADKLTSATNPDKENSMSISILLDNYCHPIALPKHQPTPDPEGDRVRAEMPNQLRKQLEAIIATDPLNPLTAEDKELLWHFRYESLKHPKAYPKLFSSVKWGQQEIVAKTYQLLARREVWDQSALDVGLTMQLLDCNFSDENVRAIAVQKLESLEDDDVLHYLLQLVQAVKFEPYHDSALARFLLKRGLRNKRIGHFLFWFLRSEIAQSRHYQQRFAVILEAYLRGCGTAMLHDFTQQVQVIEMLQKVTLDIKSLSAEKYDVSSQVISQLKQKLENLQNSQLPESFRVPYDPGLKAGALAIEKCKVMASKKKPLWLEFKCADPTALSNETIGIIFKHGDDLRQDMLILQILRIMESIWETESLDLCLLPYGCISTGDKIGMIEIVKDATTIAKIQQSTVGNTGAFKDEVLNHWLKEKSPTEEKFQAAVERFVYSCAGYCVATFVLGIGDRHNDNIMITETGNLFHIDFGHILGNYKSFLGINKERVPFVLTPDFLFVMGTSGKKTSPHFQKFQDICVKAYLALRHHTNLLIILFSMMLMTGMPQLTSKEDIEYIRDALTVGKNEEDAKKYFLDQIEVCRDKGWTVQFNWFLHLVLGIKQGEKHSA
Put plainly: PI3K kinases inhibition in vitro (ADP-Glo), PI3Kγ. Type of data set: biochemical. The protocol: as §1, §2, §3

The next data set addresses T4, PI3Kα (Homo sapiens, UniProt P42336).
T4 construct: purchased Carna Biosciences
The data set can be described thus: PI3K kinases inhibition in vitro (ADP-Glo), PI3Kα. In kind it is biochemical. The protocol:
as §1, §2, §3

Setting [2] is: averaged, recombinant kinase, 25° C., 1 h, PIP2 30 μM, read-out: PI3Kδ IC50.
Where [3] appears, read: averaged, recombinant kinase, 30° C., 1 h, PIP2 50 μM, read-out: PI3Kβ IC50.
Setting [4] is: averaged, recombinant kinase, 30° C., 1 h, PIP2 50 μM, read-out: PI3Kγ IC50.

T1 sequence (O00329 whole entry): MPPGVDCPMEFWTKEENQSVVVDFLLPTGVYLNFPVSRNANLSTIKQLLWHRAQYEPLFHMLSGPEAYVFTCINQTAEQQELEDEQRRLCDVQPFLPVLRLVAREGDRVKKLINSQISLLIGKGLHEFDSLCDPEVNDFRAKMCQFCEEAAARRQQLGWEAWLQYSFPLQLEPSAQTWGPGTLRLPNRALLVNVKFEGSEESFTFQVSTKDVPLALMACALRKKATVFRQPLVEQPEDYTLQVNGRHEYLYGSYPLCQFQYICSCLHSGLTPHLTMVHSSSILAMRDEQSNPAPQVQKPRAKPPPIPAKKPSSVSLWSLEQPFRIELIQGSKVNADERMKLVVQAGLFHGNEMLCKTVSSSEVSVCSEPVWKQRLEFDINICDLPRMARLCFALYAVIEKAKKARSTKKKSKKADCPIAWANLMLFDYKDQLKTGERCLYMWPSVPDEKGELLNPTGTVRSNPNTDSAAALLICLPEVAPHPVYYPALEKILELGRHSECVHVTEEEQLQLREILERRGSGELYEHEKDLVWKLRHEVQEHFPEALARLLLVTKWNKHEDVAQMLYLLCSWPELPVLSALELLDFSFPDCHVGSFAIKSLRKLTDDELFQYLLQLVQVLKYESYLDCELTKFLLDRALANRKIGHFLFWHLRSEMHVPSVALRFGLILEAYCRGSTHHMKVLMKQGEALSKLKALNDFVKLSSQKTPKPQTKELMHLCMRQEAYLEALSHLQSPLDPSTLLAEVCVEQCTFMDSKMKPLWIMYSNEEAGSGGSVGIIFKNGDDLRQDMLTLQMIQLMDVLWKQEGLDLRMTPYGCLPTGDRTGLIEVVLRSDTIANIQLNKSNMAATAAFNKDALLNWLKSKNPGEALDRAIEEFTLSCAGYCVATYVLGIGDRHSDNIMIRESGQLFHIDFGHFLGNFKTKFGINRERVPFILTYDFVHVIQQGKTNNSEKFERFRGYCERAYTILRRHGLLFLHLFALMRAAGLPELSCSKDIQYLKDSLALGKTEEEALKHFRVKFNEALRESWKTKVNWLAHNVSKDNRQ
T1 sequence (P27986 whole entry, further chain): as the sequence (P27986 whole entry, further chain) above
T4 sequence (P42336 whole entry): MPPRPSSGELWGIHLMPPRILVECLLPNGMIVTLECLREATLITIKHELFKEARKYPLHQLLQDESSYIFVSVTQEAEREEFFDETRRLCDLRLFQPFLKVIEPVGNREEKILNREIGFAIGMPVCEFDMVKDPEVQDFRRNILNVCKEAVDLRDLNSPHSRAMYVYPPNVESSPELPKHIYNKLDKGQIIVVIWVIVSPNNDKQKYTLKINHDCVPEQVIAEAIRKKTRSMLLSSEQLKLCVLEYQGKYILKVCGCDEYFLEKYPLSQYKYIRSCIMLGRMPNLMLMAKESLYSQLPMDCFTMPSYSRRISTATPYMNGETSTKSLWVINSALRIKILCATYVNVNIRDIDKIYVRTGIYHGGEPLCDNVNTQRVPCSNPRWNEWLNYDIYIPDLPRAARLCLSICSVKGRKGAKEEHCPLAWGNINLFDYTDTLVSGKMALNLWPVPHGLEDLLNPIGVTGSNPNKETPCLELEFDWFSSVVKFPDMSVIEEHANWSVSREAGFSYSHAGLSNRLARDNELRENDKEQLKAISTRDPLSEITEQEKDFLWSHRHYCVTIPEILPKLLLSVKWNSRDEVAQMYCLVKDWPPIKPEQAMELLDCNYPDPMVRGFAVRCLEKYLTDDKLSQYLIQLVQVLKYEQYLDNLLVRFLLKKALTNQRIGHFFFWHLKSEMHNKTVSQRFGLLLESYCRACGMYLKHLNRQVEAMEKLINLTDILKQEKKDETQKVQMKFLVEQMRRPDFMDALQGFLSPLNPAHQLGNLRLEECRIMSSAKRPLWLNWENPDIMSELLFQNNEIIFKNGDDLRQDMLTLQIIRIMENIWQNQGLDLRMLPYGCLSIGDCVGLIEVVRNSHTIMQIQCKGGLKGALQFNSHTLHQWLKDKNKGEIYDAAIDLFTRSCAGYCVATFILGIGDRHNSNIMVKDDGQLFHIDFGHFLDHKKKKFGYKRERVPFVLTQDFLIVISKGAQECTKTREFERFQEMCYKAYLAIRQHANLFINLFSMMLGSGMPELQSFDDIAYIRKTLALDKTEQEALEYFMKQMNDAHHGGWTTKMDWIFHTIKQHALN
T4 sequence (P27986 whole entry partner): as the sequence (P27986 whole entry, further chain) above

In turn, `CC(C)(C)N1CCN(Cc2cc3nc(-n4c(C(F)F)nc5ccccc54)cc(N4CCOCC4)n3n2)CC1` [Example 50, 5-(2-(difluoromethyl)benzimidazol-1-yl)-2-((4-tert-butylpiperazin-1-yl)methyl)-7-(morpholin-4-yl)-pyrazolo[1,5-a]pyrimidine] yielded an area under the curve (AUC) in data set [1] of 5030 ng·h/mL. The highest level in data set [1] (Cmax) was 900 ng/mL. Besides, the Tmax in data set [1] is 2 h. Besides, the IC50 on PI3Kδ (setting [2]) is below 100 nM; at PI3Kβ (setting [3]), above 1000 nM; on PI3Kγ (setting [4]), above 1000 nM; on PI3Kα, 100 to 1000 nM.

In turn, `CC(C)(C)N1CCN(Cc2cc3nc(-c4cccc5[nH]ccc45)cc(N4CCOCC4)n3n2)CC1` [Example 8, 2-((4-tert-butylpiperazin-1-yl)-methyl)-5-(1H-indol-4-yl)-7-(morpholin-4-yl)pyrazolo[1,5-a]-pyrimidine] gave an AUC in data set [1] of 1290 ng·h/mL. The same molecule returned a Cmax in data set [1] of 200 ng/mL. Further, the Tmax in data set [1] is 2 h. Further, the 50% inhibitory concentration (IC50) at PI3Kδ was below 100 nM; on PI3Kβ, above 1000 nM; against PI3Kγ it was above 1000 nM; on PI3Kα, above 1000 nM.

`CC(C)(O)C1CCN(Cc2cc3nc(-c4cccc5[nH]ccc45)cc(N4CCOCC4)n3n2)CC1` [Example 4, 2-((4-(2-hydroxypropan-2-yl)-piperidin-1-yl)methyl)-5-(1H-indol-4-yl)-7-(morpholin-4-yl)pyrazolo [1,5-a]pyrimidine]: in data set [1], the AUC worked out at 3580 ng·h/mL. Also, in data set [1], the peak level (Cmax) was 600 ng/mL. The Tmax in data set [1] worked out at 2 h. Further, the IC50 on PI3Kδ was below 100 nM; against PI3Kβ, above 1000 nM; against PI3Kγ, above 1000 nM; against PI3Kα it was above 1000 nM.

On to `CC(C)(C(N)=O)N1CCN(Cc2cc3nc(-c4c(F)ccc5[nH]ccc45)cc(N4CCOCC4)n3n2)CC1` [Example 10, 2-(4-((5-(5-fluoro-1H-indol-4-yl)-7-(morpholin-4-yl)pyrazolo[1,5-a]-pyrimidin-2-yl)methyl)piperazin-1-yl)-2-methyl-propionamide], for which the concentration for half-maximal inhibition (IC50) was below 100 nM at PI3Kδ (setting [2]), above 1000 nM on PI3Kβ (setting [3]), above 1000 nM on PI3Kγ (setting [4]) and above 1000 nM at PI3Kα.

In the case of `CC(C)(C)N1CCN(Cc2cc3nc(-c4ccc(N)nc4)cc(N4CCOCC4)n3n2)CC1` [Example 16, 5-(2-aminopyridin-5-yl)-2-((4-tert-butylpiperazin-1-yl)methyl)-7-(morpholin-4-yl)pyrazolo[1,5-a]-pyrimidine], the IC50 on PI3Kδ (setting [2]) was below 100 nM; on PI3Kβ (setting [3]) it was above 1000 nM; at PI3Kγ (setting [4]) it was above 1000 nM; on PI3Kα, above 1000 nM.

For the molecule `CN(C)C1CCN(Cc2cc3nc(-c4cccc5[nH]ccc45)cc(N4CCOCC4)n3n2)CC1` [Example 5, 2-((4-(dimethylamino)piperidin-1-yl)methyl)-5-(1H-indol-4-yl)-7-(morpholin-4-yl)pyrazolo[1,5-a]-pyrimidine], the IC50 on PI3Kδ is below 100 nM; against PI3Kβ it was above 1000 nM; against PI3Kγ it was above 1000 nM; at PI3Kα it was above 1000 nM.

Take `CC(C)(C)N1CCN(Cc2cc3nc(-n4c(C(F)F)nc5cnccc54)cc(N4CCOCC4)n3n2)CC1` [Example 62, 5-(2-(difluoromethyl)imidazo[4,5-c]pyridin-1-yl)-2-((4-tert-butylpiperazin-1-yl)methyl)-7-(morpholin-4-yl)pyrazolo[1,5-a]-pyrimidine]: the IC50 on PI3Kδ (setting [2]) was 100 to 1000 nM; on PI3Kβ (setting [3]) it was above 1000 nM; at PI3Kγ (setting [4]) it was above 1000 nM; on PI3Kα, above 1000 nM.

Take `CN(C)C1CCN(Cc2cc3nc(-c4c(F)ccc5[nH]ccc45)cc(N4CCOCC4)n3n2)CC1` [Example 13, 2-((4-(dimethylamino)piperidin-1-yl)methyl)-5-(5-fluoro-1H-indol-4-yl)-7-(morpholin-4-yl)pyrazolo[1,5-a]pyrimidine]: the IC50 on PI3Kδ (setting [2]) was below 100 nM; on PI3Kβ (setting [3]), above 1000 nM; at PI3Kγ (setting [4]), above 1000 nM; at PI3Kα, above 1000 nM.

For the molecule `CC(C)(C(N)=O)N1CCN(Cc2cc3nc(-c4cccc5[nH]ccc45)cc(N4CCOCC4)n3n2)CC1` [Example 9, 2-(4-((5-(1H-indol-4-yl)-7-(morpholin-4-yl)pyrazolo[1,5-a]-pyrimidin-2-yl)methyl)piperazin-1-yl)-2-methyl-propionamide], the concentration for half-maximal inhibition (IC50) at PI3Kδ was below 100 nM; at PI3Kβ, above 1000 nM; against PI3Kγ, above 1000 nM; on PI3Kα, above 1000 nM.

As to `CC(C)(C)N1CCN(Cc2cc3nc(-c4c(F)ccc5[nH]ccc45)cc(N4CCOCC4)n3n2)CC1` [Example 11, 2-((4-tert-butylpiperazin-1-yl)-methyl)-5-(5-fluoro-1H-indol-4-yl)-7-(morpholin-4-yl)pyrazolo[1,5-a]-pyrimidine], in data set [1], the exposure (AUC) is 1250 ng·h/mL. For the same molecule, the maximum concentration (Cmax) in data set [1] was determined as 300 ng/mL. Moreover, in data set [1], the time of peak concentration (Tmax) worked out at 2 h. The IC50 was below 100 nM at PI3Kδ (setting [2]), above 1000 nM at PI3Kβ, above 1000 nM at PI3Kγ (setting [4]) and above 1000 nM at PI3Kα.

As to `CC(C)(O)C1CCN(Cc2cc3nc(-n4c(C(F)F)nc5ccccc54)cc(N4CCOCC4)n3n2)CC1` [Example 51, 5-(2-(difluoromethyl)benzimidazol-1-yl)-2-((4-(2-hydroxypropan-2-yl)piperidin-1-yl)methyl)-7-(morpholin-4-yl)pyrazolo[1,5-a]-pyrimidine], the IC50 is below 100 nM on PI3Kδ (setting [2]), above 1000 nM on PI3Kβ (setting [3]), above 1000 nM at PI3Kγ (setting [4]) and above 1000 nM on PI3Kα.

As to `CC(C)(C)N1CCN(C(=O)c2cc3nc(-c4cccc5[nH]ccc45)cc(N4CCOCC4)n3n2)CC1` [Example 70, 2-(4-tert-butylpiperazin-1-ylcarbonyl)-5-(1H-indol-4-yl)-7-(morpholin-4-yl)pyrazolo[1,5-a]pyrimidine], the IC50 on PI3Kδ (setting [2]) is below 100 nM; at PI3Kβ (setting [3]) it was above 1000 nM; on PI3Kγ (setting [4]) it was above 1000 nM; against PI3Kα, above 1000 nM.

With `CC(C)(C)N1CCN(Cc2nn3c(N4CCOCC4)cc(-n4c(C(F)F)nc5ccccc54)nc3c2Cl)CC1` [Example 71, 5-(2-(difluoromethyl)benzimidazol-1-yl)-3-chloro-2-((4-tert-butylpiperazin-1-yl)methyl)-7-(morpholin-4-yl)pyrazolo[1,5-a]pyrimidine], the half-inhibitory concentration (IC50) on PI3Kδ (setting [2]) was below 100 nM; at PI3Kβ (setting [3]), above 1000 nM; at PI3Kγ (setting [4]), above 1000 nM; against PI3Kα, 100 to 1000 nM.

Turning to `CCN1CCN(Cc2cc3nc(-c4cccc5[nH]ccc45)cc(N4CCOCC4)n3n2)CC1` [Example 22, 2-((4-ethylpiperazin-1-yl)methyl)-5-(1H-indol-4-yl)-7-(morpholin-4-yl)pyrazolo[1,5-a]pyrimidine], the IC50 was below 100 nM against PI3Kδ, above 1000 nM against PI3Kβ, above 1000 nM against PI3Kγ and above 1000 nM on PI3Kα.

Turning to `O=S1(=O)CCN(C2CN(Cc3cc4nc(-c5cccc6[nH]ccc56)cc(N5CCOCC5)n4n3)C2)CC1` [Example 31, 5-(1H-indol-4-yl)-2-((3-(1,1-dioxothiomorpholin-4-yl)azetidin-1-yl)methyl)-7-(morpholin-4-yl)-pyrazolo[1,5-a]pyrimidine], the IC50 against PI3Kδ is below 100 nM; at PI3Kβ it was above 1000 nM; on PI3Kγ, above 1000 nM; on PI3Kα, above 1000 nM.

For the molecule `CC(C)(C)C1CCN(Cc2cc3nc(-c4cccc5[nH]ccc45)cc(N4CCOCC4)n3n2)CC1` [Example 28, 2-((4-tert-butylpiperidin-1-yl)-methyl)-5-(1H-indol-4-yl)-7-(morpholin-4-yl)pyrazolo[1,5-a]-pyrimidine], the IC50 against PI3Kδ was below 100 nM; against PI3Kβ it was above 1000 nM; at PI3Kγ, above 1000 nM; against PI3Kα, above 1000 nM.

With `FC(F)c1nc2ccccc2n1-c1cc(N2CCOCC2)n2nc(CN3CC(N4CCOCC4)C3)cc2n1` [Example 64, 5-(2-(difluoromethyl)benzimidazol-1-yl)-2-((3-(morpholin-4-yl)-azetidin-1-yl)methyl)-7-(morpholin-4-yl)pyrazolo[1,5-a]pyrimidine], the IC50 at PI3Kδ (setting [2]) is below 100 nM; on PI3Kβ (setting [3]) it was above 1000 nM; on PI3Kγ (setting [4]), above 1000 nM; on PI3Kα, 100 to 1000 nM.

By AUC is commonly meant the area under the concentration-time curve, a measure of exposure. Read a low AUC as less exposure. One may read the Cmax as the highest concentration seen after dosing. A word on the Tmax: it is the time from dosing to the highest level. As usually defined, the IC50 is the concentration that gives 50% inhibition.
